Measured values reported in patent US3975538A, “Miticidally active compositions” (priority 1974, dated 1976).

Assays:
[1] = tested on: citrus red mite, Panonychus citri; assay: Experiment 1 miticidal test (citrus red mite on potted lemon tree); type: in vivo; settings: 240 h, larvae and adults, 200 ppm in water, 20 cc spray, 10 days at 28°C, read-out: Evaluation (mortality of mites and eggs)
Description: In this experiment, approximately 50 larvae and adults of the citrus red mite, Panonychus citri were first released on the leaves of a young lemon tree, with about 10 leaves, growing in a pot (9 cm in diameter). […] Two days later, each potted plant was sprayed with 20 cc of one of these preparations with a spray gun (under 1 kg/cm^2 pressure, 80 cm distance from the plant) in a spray chamber. After the spraying, the pots were placed in a air-conditioned greenhouse (28°C) for 10 days, the number of mites and eggs surviving on the leaves counted.

[2] = tested on: Kanzawa spider mite, Tetranychus kanzawai; assay: Experiment 3 miticidal test (Kanzawa spider mite on pea seedling); type: in vivo; settings: female adults, 500 ppm in water, 20 cc spray, three repeats, read-out: Evaluation (mortality of mites)
From the text: (§1) Criteria for evaluating effectiveness:
In this experiment, one day after approximately 50 female adults of the Kanzawa spider mite, Tetranychus kanzawai, were placed on the leaves of a seedling of the pea plant (5 days after germination), growing in pots (9 cm in diameter), the plant was sprayed with emulsion of the compound of Formula (I), diluted to 500 ppm in water. […] The test was repeated three times.

eggs of citrus red mite = assay: Experiment 4 ovicidal test (citrus red mite eggs on trifoliate orange); type: in vivo, Panonychus citri; settings: 500 ppm in water, 20 cc spray, 7 days at 28°C, three repeats
Description: as §1
In this experiment, 20 female adults of the citrus red mite were released on the leaves of the potted trifoliate orange (15 cm in height). The pots were then placed in a air-conditioned greenhouse (28°C) for 2 days. Then the adults were removed from the plant and the eggs laid on the leaves were subjected to the ovicidal test. The number of the eggs on each plant was counted prior to the chemical application. […] 20 cc of each compound was sprayed on one of the plants. After spraying, the pots were returned to the air-conditioned greenhouse and kept there for 7 days. Then, by microscopic inspection, the numbers of unhatched eggs, the larvae which died after hatching, and the surviving larvae, respectively, on each plant were counted.

[3] = tested on: two-spotted spider mite, Tetranychus urticae; assay: Experiment 2 miticidal test (two-spotted spider mite on pea seedling); type: in vivo; settings: 48 h, female adults, 500 ppm in water, 20 cc spray, 2 days at 28°C, read-out: Evaluation (mortality of mites)
Description: as §1
After spraying the pots were placed in a air-conditioned greenhouse (28°C) for 2 days.

[4] = tested on: citrus red mite which show resistance to citrazon; assay: Experiment 5 test on citrazon-resistant citrus red mite; type: in vivo; settings: Panonychus citri, 48 h, read-out: Death rate
Description: 100 female adults of citrus red mite which show resistance to citrazon were released on the leaves of the potted trifoliate orange (The pot: 9 cm in diameter). 20 cc each of the emulsions 100 prepared in Example 4, of compound No.4 and citrazon (mentioned before) for comparison of different concentrations was sprayed on one of the pots. After spraying the pots were kept in a kasten for 2 days and from the number of the surviving mites the death rates were calculated.

SMILES | mortality at 200 ppm [1] [%] | mortality at 500 ppm [2] [%] | Evaluation (ovicidal effectiveness) (eggs of citrus red mite) | mortality at 500 ppm [3] [%] | other results
CCOC(=NOC(=O)SC(C)C)c1c(OC)ccc2ccccc12 [compound 13, ethyl O-isopropylthiocarbonyl-2-methoxy-1-naphthohydroxamate] | 100 |  |  |  | 
CCOC(=NOC(=O)c1ccccc1)c1c(OC)ccc2ccccc12 [Control No. 1, ethyl O-benzoyl-2-methoxy-1-naphthohydroxamate] | < 49 | < 49 | - (49 % or less) | < 49 | 
CCOC(=NOC(=O)c1ccc(C)cc1)c1c(OC)ccc2ccccc12 [Control No. 2, ethyl 0-(4-methylbenzoyl)-2-methoxy-1-naphthohydroxamate] | < 49 | < 49 | - (49 % or less) | < 49 | 
CCOC(=O)ON=C(OCC)c1c(OC)ccc2ccccc12 [compound 2, ethyl O-ethoxycarbonyl-2-methoxy-1-naphthohydroxamate] | 90 to 99 |  | ++ (90 - 99 %) |  | 
CCOC(=NOC(=O)c1ccccc1)c1c(OC)ccc(Cl)c1OC [Citrazon, ethyl O-benzoyl-3-chloro-2,6-dimethoxybenzohydroxamate] |  |  |  |  | mortality at 12.5 ppm [4]: 19.5%; mortality at 25 ppm [4]: 25.8%; mortality at 50 ppm [4]: 40.6%; mortality at 100 ppm [4]: 40.5%; mortality at 200 ppm [4]: 43.5%; mortality at 400 ppm [4]: 68%
